Assay results reported in PMC11504387, “Synthesis and Biological Activity Assessment of 2-Styrylbenzothiazoles as Potential Multifunctional Therapeutic Agents” (Antioxidants, 2024).
Marks after values point to notes of the source that are not given here.

What was measured:
[1] = system: skin HaCat keratinocytes; test: Cell growth inhibition assay, HaCat; assay type: cell-based, human; conditions: Homo sapiens, HaCaT; 24 h incubation; mean ± SD
Description: Cell growth inhibition analyses were performed on human melanoma Colo38 cells and skin HaCat keratinocytes. Human melanoma Colo38 cells were kindly given by Dr. Patrizio Giacomini (Laboratory of Immunology, Regina Elena Institute, Rome, Italy). HaCat cells were obtained from Istituto Zooprofilattico Sperimentale della Lombardia e dell’Emilia-Romagna, Brescia, Italy. Cells were seeded at 40,000 cells/mL and 25,000 cells/mL, respectively. Colo38 cells were maintained in RPMI 1640, supplemented with 10% foetal bovine serum (FBS), penicillin (100 Units/mL), and streptomycin (100 µg/mL). HaCat cells were maintained in DMEM, supplemented with 10% fatal bovine serum (FBS), penicillin (100 Units/mL), streptomycin (100 µg/mL) and glutamine (2 mM); the incubation was performed at 37 °C in a 5% CO2 atmosphere. Compounds were dissolved in DMSO to obtain 50 mM stock solutions and diluted before cell treatment in MeOH. The tested compounds were added at serial dilutions to the cell cultures (from 0.1 to 100 µM) and incubated for 24 h further. Cells were then harvested, suspended in physiological solution, and counted with a Z2 Coulter Counter (Coulter Electronics, Hialeah, FL, USA). The number of cells/mL and the IC50 values were determined when untreated cells were in the log phase of cell growth. Samples of vehicles and untreated cells were included in each plate. Cisplatin was used as positive control for the HaCat cells, while N1-(4-arylidene)-1H-(2-OH-4-N(Et)2-phenyl)-[d]imidazole-2-carbohydrazide was used as positive control for the Colo38 cell line.

[2] = DPPH radical scavenging activity; assay type: biochemical; conditions: mean ± SD; for DPPH Inhibition %: 1 mg/mL
Description: For all the compounds, 0.750 mL of a DMSO-MeOH solution mixed with 1.5 mL of DPPH solution (0.004%) in MeOH was analysed. The samples were kept in the dark at room temperature for 30 min and then analysed with a spectrophotometer by reading the absorbance at 517 nm (lambda max of the absorption spectrum of the DPPH radical). Equation (5) was used to obtain the percentage inhibition (%) of the radical: DPPH radical-scavenging capacity (%) = [1 − (A1 − A2)/A0] × 100%(5) where A2 is the blank (MeOH), and A1 and A0 are, respectively, the recorded absorbances of the sample and control (0.750 MeOH and 1.5 mL DPPH solution), directly proportional to the concentration of residual DPPH. An initial screening was performed by testing all compounds at a concentration of 1 mg/mL (Trolox® was used as the standard); subsequently, compounds showing >90% radical inhibition were further tested to calculate their IC50 value (expressed in µg/mL). Ferulic acid was used as positive control. A linear regression was performed to calculate the sample concentration able to eliminate 50% of DPPH free radicals.

[3] = UV spectrophotometric analysis of compounds in solution; assay type: physicochemical; conditions: for ʎmax: 10 µg/mL solution, DMSO diluted in MeOH; for Ɛ (molar extinction coefficient): at ʎmax, Lambert–Beer equation
Description: The synthesized compounds were solubilised in DMSO and diluted in MeOH, and the absorbance of the 10 µg/mL solution was measured between 290–400 nm with a UV-Vis spectrophotometer (SHIMADZU UV-2600 240 V, 1 cm quartz cell at 1 nm intervals). The absorbance at wavelength λ is related to the transmittance T(λ) via the Equation (1): A(λ) = −Log[T(λ)](1) where T(λ) is the fraction of incident irradiance transmitted by the sample. […]
The molar extinction coefficient was calculated with the absorbance recorded at the ʎmax applying the Lambert–Beer equation.

[4] = system: primary human monocytes; test: Lipid mediator (LM) formation in primary human monocytes; assay type: cell-based; conditions: 10 µM; A23187 2.5 µM, 30 min
Description: Monocytes and polymorphonuclear leukocytes (PMNL) were freshly isolated from human blood. Human blood and leukocyte concentrates were provided by the Institute for Transfusion Medicine of the University Hospital Jena (Thuringia, Germany). The protocols for experiments with human blood and blood cells were approved by the ethical commission of the Friedrich Schiller University of Jena. Following blood density centrifugation and separation of cell populations, peripheral blood mononuclear cells (PBMC) were left to adhere for 1 h to cell culture flasks (monocyte-enriched PBMC). Non-adherent cells were washed off from the adherent monocytes, before pre-incubating monocytes (5 × 10^6 cells/mL) with the test compounds for 10 min at 37 °C. LM formation was elicited with A23187 (2.5 µM) and CaCl2 (1 mM) over 30 min. The reaction was stopped with 1 mL of ice-cold methanol containing 10 µL of deuterium-labelled internal LM standards (200 nM d8-5S-HETE, d4-LTB4, d5-LXA4, d5-RvD2, d4-PGE2 and 10 µM d8-AA). LMs were extracted using Sep-Pak C18 35 cc Vac Cartridges (Waters, Milford, MA, USA) and analysed by UPLC-MS/MS as described by Pein et al..
The ability to modulate LM formation was screened in primary human monocytes expressing the enzymes required for PGE2, LTB4, and 12-HETE production (Figure 2A). Cells were pre-treated with the test compounds BZTst1–6 (10 µM) or the reference COX inhibitor diclofenac (1 µM) for 10 min prior to stimulation with the calcium ionophore A23187 (2.5 µM) for 30 min.

ʎmax [3] | Ɛ (molar extinction coefficient) [3] | DPPH IC50 (sample concentration able to scavenge 50% of the DPPH radical) ([2]; values in brackets) | melting point | Compound | IC50 [1] | DPPH Inhibition % [2] | 12-HETE formation [4]
354.4 nm | 30,835.44 dm^3 mol^−1 cm^−1 |  |  | Oc1ccc(/C=C/c2nc3ccccc3s2)cc1 [BZTst2, (E)-4-(2-(benzo[d]thiazol-2-yl)vinyl)phenol] | 85.8 ± 17.9 µM | 26.70 ± 0.83% | 
351.0 nm | 35,125.63 dm^3 mol^−1 cm^−1 |  | 144 to 148 °C | COc1ccc(/C=C/c2nc3ccccc3s2)cc1 [BZTst3, (E)-2-(4-methoxystyryl)benzo[d]thiazole] | > 100 µM | <LOQ ^b | 

The remaining lines, values behind:

Compound | ʎmax [3] | Ɛ (molar extinction coefficient) [3] | DPPH IC50 (sample concentration able to scavenge 50% of the DPPH radical) ([2]; values in brackets) | melting point | IC50 [1] | DPPH Inhibition % [2] | 12-HETE formation [4]
COc1cc(/C=C/c2nc3ccccc3s2)ccc1O [BZTst6, (E)-4-(2-(benzo[d]thiazol-2-yl)vinyl)-2-methoxyphenol] | 361.2 nm | 16,871.66 dm^3 mol^−1 cm^−1 |  |  | > 100 µM | 18.86 ± 0.11 ^c % | 
C(=C\c1nc2ccccc2s1)/c1ccccc1 [BZTst1, (E)-2-styrylbenzo[d]thiazole] | 335.0 nm | 34,075.83 dm^3 mol^−1 cm^−1 |  |  | > 100 µM | <LOQ ^b | weak but significant inhibition
COc1ccc(/C=C/c2nc3ccccc3s2)cc1O [BZTst5, (E)-5-(2-(benzo[d]thiazol-2-yl)vinyl)-2-methoxyphenol] | 358.0 nm | 22,513.37 dm^3 mol^−1 cm^−1 |  |  | 86 ± 40.7 µM | 46.88 ± 0.60% | 
Oc1ccc(/C=C/c2nc3ccccc3s2)cc1O [BZTst4, (E)-4-(2-(benzo[d]thiazol-2-yl)vinyl)benzene-1,2-diol] | 363.3 nm | 22,070.71 dm^3 mol^−1 cm^−1 | 10.46 ± 0.27 µg/mL |  | 80.2 ± 24.7 µM | 88.54 ± 0.47% | highly significant inhibition
